A melting point compilation (Tetko et al.; mined from patent text by program, amines drawn as free bases though some values may be those of a salt)

Row | melting point [°C] | Structure (SMILES)
1 | 311 to 313 | COc1cc(OC)c(OC)cc1C=C1CCc2c1oc1ccc(C(=O)O)cc1c2=O
2 | 284 to 286 | COc1c(-c2ccc3cc(NS(C)(=O)=O)ccc3c2)cc(N2CCNC2=O)cc1C(C)(C)C
3 | 106 to 108 | Cn1nc(Oc2ccc(Cl)c(O)c2)c(Cl)c1C(F)(F)F
4 | 122 to 126 | CC(C#Cc1cccc(C=Cc2ccccn2)c1)N(O)C(N)=O (stereo not given)
5 | 170 to 172 | COc1cc(OC)c(C=O)cc1I
6 | 147 to 149 | CC(C)(C)OC(=O)NC1CCCCCC=CC2CC2(C(=O)NS(=O)(=O)C2CC2)NC(=O)C2CC(OC(=O)c3ccc(Cl)c(F)c3)CN2C1=O (stereo not given)
7 | 185 to 186 | Nc1ccc2c(c1)Sc1ccc(N)cc1S2
8 | 152 to 154 | CC(C)(C)OC(=O)NCC(=O)Nc1ccc(O)cc1
9 | 312 | O=c1[nH]c2cc(Cl)cc(Cl)c2oc1=O
10 | 163 to 164 | CCCn1cnc(C(N)=O)c1NC(=S)NC(=O)c1ccccc1
11 | 94 to 96 | O=c1n(CCCN2CCN(c3ccccc3)CC2)nc2n1-c1ccccc1OC2
12 | 68 to 72 | CS(=O)(=O)OCc1nc2ccc(F)cc2s1
13 | 131 to 133 | COc1ccc(C2=C(c3ccccc3)CCCc3cc(OC4CCCCO4)ccc32)cc1 (stereo not given)
14 | 117 to 118 | COC(=O)c1c(NC(C)=O)sc2c1CCC(C(C)(C)C)C2 (stereo not given)
15 | 156 to 158 | CC(C)(C)OC(=O)NC1CCCCCC=CC2CC2(C(=O)NS(=O)(=O)C2CC2)NC(=O)C2CC(OC(=O)c3ccc4ccccc4c3)CN2C1=O (stereo not given)
16 | 76 | CCON=C(CC)C1=C(O)CC(c2cccc3sccc23)CC1=O (stereo not given)
17 | 164 to 165 | CC(C)(C)c1cc(C(=O)COc2ccc(C(=O)O)c(O)c2)cc(C(C)(C)C)c1O
18 | 209 | NS(=O)(=O)c1nc2ccc(O)cc2s1
19 | 92 to 94 | O=C(O)COc1ccc(SCc2cc(-c3ccc(Cl)cc3)no2)c2c1CCC2
20 | 160 | COc1ccc(-c2oc3ccc(CC(=O)N4CCN(c5ccccc5)CC4)cc3c2SC)cc1OC

Row | melting point [°C] | Structure (SMILES)
21 | 79 to 85 | Oc1cc2c(cc1CCc1cccs1)OCC2
22 | 116 to 117 | CCCCCCCCCCCCS(=O)(=O)N1CCCSC1=C[N+](=O)[O-]
23 | 86 to 88 | CCN(CC)CCCOc1ccc(-c2cc3ccccc3o2)cc1
24 | 205 to 207 | CCN1CCN(c2cccc(Nc3nc4c(-c5ccc(P(C)(C)=O)cc5)cccn4n3)c2)C(=O)C1
25 | 56 to 57 | CC(=O)Sc1ccc(I)cc1
26 | 154 to 155 | Cc1nc2c(NC(=O)OCCc3ccc([N+](=O)[O-])cc3)nc(=O)n(C3CC(O)C(CO)O3)c2nc1C (stereo not given)
27 | 126 to 127 | COc1ccc(N2CCN(Cc3coc4c(OC)cccc34)CC2)cc1
28 | 155 to 156 | Cc1c(NC(=O)CC(C)(C)C)cc2c(c1C)OC(C)(C)C2c1ccccc1OC(F)(F)F (stereo not given)
29 | 129 to 131 | COc1cc(OC)c(CN2CCc3cc(OCc4ccccc4)c(OC)cc3C2)c(OC)c1
30 | 191 to 193 | Cc1cc(C)c(C(O)c2cccc(-n3ccnc3)c2)c(C)c1 (stereo not given)
31 | 179 to 180 | CCCCCC(CC(=O)Nc1cc(C(N)=O)ccc1C(C)(C)C)c1cc(C)c(OC)cc1OC (stereo not given)
32 | 191 to 193 | O=c1ccc(-c2ccc(C(F)(F)F)cc2)n[nH]1
33 | 106 to 107 | C=CCOc1ccc(C)c2c1C(=O)C1CCCCC21 (stereo not given)
34 | 81.5 to 82.5 | O=C(NNC(=O)c1ccccc1C(F)(F)F)c1ccccc1Cl
35 | 151 to 152 | Cc1oc(-c2ccccc2)nc1COc1ccc(CC2SC(=O)NC2=O)cn1 (stereo not given)
36 | 220 to 221 | c1ccc(CCN2CCc3[nH]c4ccc5scc(-c6ccccc6)c5c4c3C2)cc1
37 | 119 to 121 | COc1cccc(C(=O)c2cc3ccccc3[nH]2)c1
38 | 193 to 195 | CC(=NO)c1noc2ccccc12
39 | 197 to 199 | Cn1nnc(-c2[nH]c3ccccc3c2Cl)n1

Row | Structure (SMILES) | melting point [°C]
40 | CNS(=O)(=O)c1cscc1CCl | 75 to 76
